Reference: patent publication US20170280720A1, “ARGININE […] INHIBITORS AND USES THEREOF” (EPIZYME, INC., priority 2014, published 2017)
pIC50: −log10 of the molar value.

Molecular target: T1, Human CARM1 (PRMT4) (Homo sapiens, UniProt Q86X55)
T1 construct: Flag-CARM1-His; made in house; host or cells: HEK 293F cells (BacMam baculovirus, pFastBacMam)
T1 sequence (Q86X55 2-585 isoform Q86X55-1): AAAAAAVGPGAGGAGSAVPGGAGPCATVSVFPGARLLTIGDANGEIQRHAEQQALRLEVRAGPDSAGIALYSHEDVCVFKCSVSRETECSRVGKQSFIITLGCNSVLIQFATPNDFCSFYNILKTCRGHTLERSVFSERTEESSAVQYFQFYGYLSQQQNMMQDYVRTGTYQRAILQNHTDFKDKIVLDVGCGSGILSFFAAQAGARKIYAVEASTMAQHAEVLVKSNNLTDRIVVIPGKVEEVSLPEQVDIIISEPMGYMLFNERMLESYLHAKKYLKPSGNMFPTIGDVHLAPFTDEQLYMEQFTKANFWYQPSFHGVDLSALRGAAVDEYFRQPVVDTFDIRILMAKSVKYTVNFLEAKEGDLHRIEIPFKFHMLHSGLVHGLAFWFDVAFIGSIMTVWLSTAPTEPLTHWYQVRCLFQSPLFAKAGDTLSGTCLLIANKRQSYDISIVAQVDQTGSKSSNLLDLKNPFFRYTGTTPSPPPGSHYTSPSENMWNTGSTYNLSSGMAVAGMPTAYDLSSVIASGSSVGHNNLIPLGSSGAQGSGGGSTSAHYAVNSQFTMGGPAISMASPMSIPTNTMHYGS
Assay: CARM1 biochemical assay (3H-SAM Flashplate, peptide substrate)
Settings: read-out: CARM1_ IC50
Excerpt: S-adenosylmethionine (SAM), S-adenosylhomocysteine (SAH), bicine, Tween20, dimethylsulfoxide (DMSO), bovine skin gelatin (BSG), sodium butyrate and Tris(2-carboxyethyl)phosphine hydrochloride solution (TCEP) were purchased from Sigma-Aldrich at the highest level of purity possible. ^3H-SAM was purchase from American Radiolabeled Chemicals with a specific activity of 80 Ci/mmol. 384-well streptavidin Flashplates were purchased from PerkinElmer.
Peptide representative of human histone H3 residues 16-30 was synthesized with an N-terminal linker-affinity tag motif and a C-terminal amide cap by 21st Century Biochemicals. The peptide was purified by high-performance liquid chromatography (HPLC) to greater than 95% purity and confirmed by liquid chromatography mass spectrometry (LC-MS). The sequence was Biot-Ahx-[…]-amide and contained a monomethylated arginine at position 26 (SEQ ID NO.: 14).
Human CARM1 (PRMT4) (NM_199141.1) transcript clone was amplified from an HEK 293 cDNA library, incorporating a flanking 5′ sequence encoding a FLAG tag ([…]) (SEQ ID NO.: 6) fused directly to Ala 2 of CARM1 and 3′ sequence encoding a hexa His sequence ([…]) (SEQ ID NO.: 15) fused directly to Ser 608. The gene sequence encoding isoform1 containing a deletion of amino acids 539-561 was amplified subsequently and subcloned into pFastBacMam (Viva Biotech).
Recombinant baculovirus were generated according to Bac-to-Bac kit instructions (Life Technologies). […] Infections were carried out at 37° C. for 48 hours, harvested by centrifugation, and stored at −80° C. for purification.
Column was washed with 500 mM NaCl in buffer A and Flag-CARM1-His was eluted with 200 ug/ml FLAG peptide in buffer A. Pooled fractions were dialyzed in 20 mM Tris, 150 mM NaCl, 5% glycerol and 1 mM DTT, pH 7.8. The purity of recovered protein was 94.
General Procedure for CARM1 Enzyme Assays on Peptide Substrates.
The assays were all performed in a buffer consisting of 20 mM Bicine (pH=7.6), 1 mM TCEP, 0.005% BSG, and 0.002% Tween 20, prepared on the day of use. Compounds in 100% DMSO (1 ul) were spotted into a polypropylene 384-well V-bottom plates (Greiner) using a Platemate Plus outfitted with a 384-channel head (Thermo Scientific). DMSO (1 ul) was added to Columns 11, 12, 23, 24, rows A-H for the maximum signal control and 1 ul of SAH, a known product and inhibitor of CARM1, was added to columns 11, 12, 23, 24, rows I-P for the minimum signal control. A cocktail (40 ul) containing the CARM1 enzyme was added by Multidrop Combi (Thermo-Fisher). The compounds were allowed to incubate with CARM1 for 30 min at room temperature, then a cocktail (10 ul) containing ^3H-SAM and peptide was added to initiate the reaction (final volume=51 ul). The final concentrations of the components were as follows: CARM1 was 0.25 nM, ^3H-SAM was 30 nM, peptide was 250 nM, SAH in the minimum signal control wells was 1 mM, and the DMSO concentration was 2%. The assays were stopped by the addition of non-radiolabeled SAM (10 ul) to a final concentration of 300 uM, which dilutes the ^3H-SAM to a level where its incorporation into the peptide substrate is no longer detectable. 50 ul of the reaction in the 384-well polypropylene plate was then transferred to a 384-well Flashplate and the biotinylated peptides were allowed to bind to the streptavidin surface for at least 1 hour before being washed once with 0.1% Tween20 in a Biotek ELx405 plate washer. The plates were then read in a PerkinElmer TopCount plate reader to measure the quantity of ^3H-labeled peptide bound to the Flashplate surface, measured as disintegrations per minute (dpm) or alternatively, referred to as counts per minute (cpm).
Where dpm=disintegrations per minute, cmpd=signal in assay well, and min and max are the respective minimum and maximum signal controls.
Where top and bottom are the normally allowed to float, but may be fixed at 100 or 0 respectively in a 3-parameter fit. […]

Compound | pIC50
CNCCN(C)Cc1cccc(-c2cc(N3CCCCC3)c3cnn(C(C)C)c3n2)c1 [Compound 177] | 8.13
CNCCN(C)Cc1cccc(-c2cc(-c3csc(C)n3)c3cnn(C(C)C)c3n2)c1 [Compound 178] | 8.12
Cc1cc(CNC(=O)c2cc(-c3cccc(CN(C)CCN)c3)nc3c2cnn3C(C)C)no1 [Compound 184] | 7.93
CNCCN(C)Cc1cccc(-c2cc(Nc3ccncc3)c3cnn(C(C)C)c3n2)c1 [Compound 191] | 7.89
CNCCN(C)Cc1cccc(-c2cc(-c3cn[nH]c3)c3cnn(C(C)C)c3n2)c1 [Compound 192] | 7.88
CNCCN(C)Cc1cccc(-c2cc(-c3ccncc3)c3cnn(C(C)C)c3n2)c1 [Compound 196] | 7.85
CNCCN(C)Cc1cccc(-c2cc(-c3c(C)n[nH]c3C)c3cnn(C(C)C)c3n2)c1 [Compound 200] | 7.78
CNCCN(C)Cc1cccc(-c2cc(OCC3CC3)c3cnn(C(C)C)c3n2)c1 [Compound 203] | 7.72
CC(C)n1ncc2c(C(=O)NCC3COC3)cc(-c3cccc(CN(C)CCN)c3)nc21 [Compound 204] | 7.72
CNCCN(C)Cc1cccc(-c2cc(C(=O)N[C@@H](C)c3ccccc3)c3cn(Cc4ccccc4)nc3n2)c1 [Compound 213] | 7.59
CNCCN(C)Cc1cccc(-c2cc(C(=O)N[C@@H](C)c3ccccc3)c3cn(Cc4ccncc4)nc3n2)c1 [Compound 216] | 7.52
CNCCN(C)Cc1cccc(-c2cc(N(CC3CC3)CC3CC3)c3cnn(C(C)C)c3n2)c1 [Compound 218] | 7.51
CNCCN(C)Cc1cccc(-c2cc(C(=O)NCC3COC3)c3cnn(C(C)C)c3n2)c1 [Compound 219] | 7.50
CNCCN(C)Cc1cccc(-c2cc(C(=O)N[C@@H](C)c3ccccc3)c3cn(Cc4ccccn4)nc3n2)c1 [Compound 221] | 7.49
CNCCN(C)Cc1cccc(-c2cc(C(=O)N[C@@H](C)c3ccccc3)c3cnn(Cc4ccccn4)c3n2)c1 [Compound 225] | 7.42
CNCCN(C)Cc1cccc(-c2cc(NCC3CC3)c3cnn(C(C)C)c3n2)c1 [Compound 226] | 7.40
CNCCN(C)Cc1cccc(-c2cc(C(=O)N[C@@H](C)c3ccccc3)c3cn(Cc4cccnc4)nc3n2)c1 [Compound 236] | 7.34
CNCCN(C)Cc1cccc(-c2cc(C(=O)NC(C)c3ccccc3)c3cnn(C4CCOCC4)c3n2)c1 (stereo not shown) [Compound 248] | 7.26
CNCCN(C)Cc1cccc(-c2cc(C(=O)N[C@@H](C)c3ccccc3)c3cnn(Cc4cccnc4)c3n2)c1 [Compound 249] | 7.24
CNCCN(C)Cc1cccc(-c2cc(CN(C)OC)c3cnn(C(C)C)c3n2)c1 [Compound 264] | 7.13
Cc1c(C(=O)NCC2CCOCC2)cc(-c2cccc(CN(C)CCN)c2)cc1N(C)CC1CC1 [Compound 267] | 7.12
CNCCN(C)Cc1cccc(-c2cc(C(=O)NCc3ccccc3Cl)c3cnn(C(C)C)c3n2)c1 [Compound 268] | 7.11

Compound | pIC50
CNCCN(C)Cc1cccc(-c2cc(C(=O)NCC3CCOCC3)c3cnn(CC4CC4)c3n2)c1 [Compound 285] | 6.86
CNCCN(C)Cc1cccc(-c2cc(C(=O)N3Cc4ccccc4C3)c3cnn(C(C)C)c3n2)c1 [Compound 291] | 6.78
CNCCN(C)Cc1cccc(-c2cc(C(=O)N3CCC(F)(F)C3)c3cnn(C(C)C)c3n2)c1 [Compound 299] | 6.69
CNCCN(C)Cc1cccc(-c2cc(C(=O)N3CCC(OC)C3)c3cnn(C(C)C)c3n2)c1 (stereo not shown) [Compound 302] | 6.63
CNCCN(C)Cc1cccc(-c2cc(C(=O)N[C@@H](C)c3ccccc3)c3cn(Cc4ccccc4F)nc3n2)c1 [Compound 305] | 6.62
CNCCN(C)Cc1cccc(-c2cc(C(=O)NCC3CCOCC3)c3cnn(CC#N)c3n2)c1 [Compound 306] | 6.61
CC(C)n1cc2c(C(=O)NC3CCOCC3)cc(-c3cccc(CN(C)CCN)c3)nc2n1 [Compound 308] | 6.60
CNCCN(C)Cc1cccc(-c2cc(C(=O)N(C)CC(F)(F)F)c3cnn(C(C)C)c3n2)c1 [Compound 310] | 6.55
CNCCN(C)Cc1cccc(-c2cc(C(=O)NC(C)c3ccccc3)c3cn(C4CCOCC4)nc3n2)c1 (stereo not shown) [Compound 312] | 6.51
CNCCN(C)Cc1cccc(-c2cc(C(=O)N3CCC(F)C3)c3cnn(C(C)C)c3n2)c1 (stereo not shown) [Compound 313] | 6.51
CNCCN(C)Cc1cccc(-c2cc(C(=O)NC3CCOCC3)c3cnn(CC4CC4)c3n2)c1 [Compound 314] | 6.48
CNCCN(C)Cc1cccc(-c2cc(C(O)C3CCOCC3)c3cnn(C(C)C)c3n2)c1 (stereo not shown) [Compound 315] | 6.43
CCOC(=O)c1cc(-c2cccc(CN(C)CCNC)c2)nc2c1cnn2CC(F)(F)F [Compound 316] | 6.42
CNCCN(C)Cc1cccc(-c2cc(C(=O)NCC3CCOCC3)c3cnn(Cc4cccnc4)c3n2)c1 [Compound 317] | 6.41
CNCCN(C)Cc1cccc(-c2cc(C(=O)NCC3CCOCC3)c3cnn(Cc4ccccn4)c3n2)c1 [Compound 318] | 6.40
CNCCN(C)Cc1cccc(-c2cc(C(=O)N(C)C3CCOCC3)c3cnn(C(C)C)c3n2)c1 [Compound 320] | 6.39
CNCCN(C)Cc1cccc(-c2cc(C(=O)N3CCOCC3)c3cnn(C(C)C)c3n2)c1 [Compound 321] | 6.34
CNCCN(C)Cc1cccc(-c2cc(C(=O)N3CCSCC3)c3cnn(C(C)C)c3n2)c1 [Compound 322] | 6.34
Cc1cc(C)c(CNC(=O)c2cc(-c3ccc(CN(C)CCN4CCCC4)cc3)nc3c2cnn3C(C)C)c(=O)[nH]1 [Compound 364] | 4.30
Cc1cc(C)c(CNC(=O)c2cc(-c3cccc(CNCCN(C)C)c3)nc3c2cnn3C(C)C)c(=O)[nH]1 [Compound 369] | 6.30
Cc1cc(C)c(CNC(=O)c2cc(-c3cc(CN(C)CCN)ccc3C)cc3c2cnn3C(C)C)c(=O)[nH]1 [Compound 389] | 6.63
